Read-outs that look alike come from different tables or passages of the source.
Tests used:
Assay in all cases: MTT cancer cell growth inhibition
Type in all cases: cell-based
[1] = system: HCC827 (human non-small cell lung cancer cells); settings: MTT, 72 hours incubation, HCC827 cells, read-out: GI50 HCC827
Summary of the method: (§1)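 Following overnight attachment of 1500 cells per well, each line was exposed to test drug (final 10^−5 to 10^−10 M) for 72 h in a humidified 37° C., 5% CO2 incubator. Four hours with MTT, DMSO dissolution of formazan, and a 570 nm reading yielded viability data used for GI50.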

[2] = system: N-87 (human gastric cancer cells); settings: MTT, 72 hours incubation, N-87 cells, read-out: GI50 N-87
Summary of the method: as §1

[3] = system: MDA-MB-231 (breast cancer cells)
Summary of the method: as §1

[4] = system: PANC-1 (Pac-1, human pancreatic cancer cells); settings: MTT
Summary of the method: as §1

[5] = system: SGC-7901 (human gastric cancer cells); settings: MTT, 72 hours incubation, SGC-7901 cells, read-out: GI50 SGC-7901
Summary of the method: as §1

[6] = system: KBM-5 (human chronic myelogenous leukemia); settings: MTT, 72 hours incubation, KBM-5 cells, read-out: GI50 KBM-5
Summary of the method: as §1

[7] = system: DU145 (human prostate cancer cells); settings: MTT
Summary of the method: as §1

[8] = system: lncap (prostate cancer cells); settings: MTT
Summary of the method: as §1

[9] = system: Huh-7 (human hepatoma cells); settings: MTT, 72 hours incubation, Huh-7 cells, read-out: GI50 Huh-7
Summary of the method: as §1

[10] = system: U937 (human leukemia cells); settings: MTT
Summary of the method: as §1

[11] = system: HT1080 (human fibrosarcoma cells); settings: MTT, 72 hours incubation, read-out: GI50 HT1
Summary of the method: as §1

[12] = system: BGC-823 (human gastric cancer cells); settings: MTT
Summary of the method: as §1

[13] = system: Bel-7402 (human hepatoma cells); settings: MTT, 72 hours incubation, Bel-7402 cells, read-out: GI50 Bel-7402
Summary of the method: as §1

[14] = system: K562 (human leukemia cells); settings: MTT, 72 hours incubation, K562 cells, read-out: GI50 K562
Summary of the method: as §1

[15] = system: Hela (human cervical cancer cells); settings: MTT
Summary of the method: as §1

[16] = Homo sapiens, MDA-MB-231, 72 h, read-out: GI50 MDA-MB-231, MTT, 72 hours incubation, MDA-MB-231 cells
[17] = Homo sapiens, PANC-1, 72 h, 72 hours incubation, read-out: GI50 PAN
[18] = Homo sapiens, DU-145, 72 h, 72 hours incubation, read-out: GI50 Du1
[19] = Homo sapiens, LNCaP, 72 h, 72 hours incubation, read-out: GI50 lnca
[20] = Homo sapiens, U-937, 72 h, 72 hours incubation, read-out: GI50 U93
[21] = Homo sapiens, BGC-823, 72 h, 72 hours incubation, read-out: GI50 BG
[22] = Homo sapiens, HeLa, 72 h, 72 hours incubation, read-out: GI50 Hela
[23] = read-out: GI50 MDA-MB-231, MTT, 72 hours incubation, MDA-MB-231 cells
[24] = Homo sapiens, PANC-1, 72 h, PANC-1 cells, 72 hours incubation, read-out: GI50 PAN
[25] = Homo sapiens, DU-145, 72 h, DU145 cells, 72 hours incubation, read-out: GI50 Du1
[26] = Homo sapiens, LNCaP, 72 h, lncap cells, 72 hours incubation, read-out: GI50 lnca
[27] = Homo sapiens, U-937, 72 h, U937 cells, 72 hours incubation, read-out: GI50 U93
[28] = Homo sapiens, HT-1080, 72 h, HT1080 cells
[29] = Homo sapiens, BGC-823, 72 h, BGC-823 cells, 72 hours incubation, read-out: GI50 BG
[30] = Homo sapiens, HeLa, 72 h, Hela cells, 72 hours incubation, read-out: GI50 Hela

Structure (SMILES)	GI50 ([1]; Homo sapiens, HCC827, 72 h) [nM]	GI50 ([2]; Homo sapiens, 72 h) [nM]	GI50 [3, 16] [nM]	GI50 [4, 17] [nM]	GI50 ([5]; Homo sapiens, SGC-7901, 72 h) [nM]	GI50 ([6]; Homo sapiens, KBM5, 72 h) [nM]	GI50 [7, 18] [nM]	GI50 [8, 19] [nM]	GI50 ([9]; Homo sapiens, Huh-7, 72 h) [nM]	GI50 [10, 20] [nM]	GI50 ([11]; Homo sapiens, HT-1080, 72 h) [nM]	GI50 [12, 21] [nM]	GI50 ([13]; Homo sapiens, Bel-7402, 72 h) [nM]	GI50 ([14]; Homo sapiens, K562, 72 h) [nM]	GI50 [15, 22] [nM]	GI50 [4, 24] [nM]	GI50 [7, 25] [nM]	GI50 [8, 26] [nM]	GI50 [10, 27] [nM]	GI50 [11, 28] [nM]	further results
C/C=C1\NC(=O)c2nc(ccc2F)CNC(=O)C[C@@H](/C=C/CCSC(=O)CCCCCCC)OC(=O)[C@H](CC)NC1=O [Example 54]	51	49	34	50	64	99	20	30	34	40	50	40	51	29	90						
C/C=C1\NC(=O)c2cc(SC)cc(n2)CNC(=O)C[C@@H](/C=C/CCSC(C)=O)OC(=O)[C@H](C(C)C)NC1=O [Compound 224]																					GI50 [1]: 52 nM; GI50 [2]: 17 nM; GI50 [3, 23]: 62 nM; GI50 ([4]; PANC-1 cells, 72 hours incubation, read-out: GI50 PAN): 60 nM; GI50 [5]: 93 nM; GI50 [6]: 16 nM; GI50 ([7]; DU145 cells, 72 hours incubation, read-out: GI50 Du1): 50 nM; GI50 ([8]; lncap cells, 72 hours incubation, read-out: GI50 lnca): 30 nM; GI50 [9]: 36 nM; GI50 ([10]; U937 cells, 72 hours incubation, read-out: GI50 U93): 30 nM; GI50 ([11]; HT1080 cells): 90 nM; GI50 ([12]; BGC-823 cells, 72 hours incubation, read-out: GI50 BG): 30 nM; GI50 [13]: 23 nM; GI50 [14]: 23 nM; GI50 ([15]; Hela cells, 72 hours incubation, read-out: GI50 Hela): 60 nM
C/C=C1\NC(=O)c2cc(SC)cc(n2)CNC(=O)C[C@@H](/C=C/CCSC(C)=O)OC(=O)[C@H](CCCCN)NC1=O [Compound 193]	18	23	43		73	31			33				35	35		80	30	80	50	10	GI50 [12, 29]: 30 nM; GI50 [15, 30]: 430 nM
C/C=C1\NC(=O)c2cccc(n2)NC(=O)C[C@@H](/C=C/CCSC(C)=O)OC(=O)[C@H](C(C)C)NC1=O [Example 22]	59	39	92	4070	53	72	40	390	82	120	50	5880	84	34	390						
C/C=C1\NC(=O)c2nc(F)cc(n2)CNC(=O)C[C@@H](/C=C/CCSC(C)=O)OC(=O)[C@H](C(C)C)NC1=O [Compound 98]																					GI50 [1]: 35 nM; GI50 [2]: 21 nM; GI50 [3, 23]: 37 nM; GI50 ([4]; 72 hours incubation, read-out: GI50 PAN): 80 nM; GI50 [5]: 36 nM; GI50 [6]: 29 nM; GI50 ([7]; 72 hours incubation, read-out: GI50 Du1): 40 nM; GI50 ([8]; 72 hours incubation, read-out: GI50 lnca): 20 nM; GI50 [9]: 28 nM; GI50 ([10]; 72 hours incubation, read-out: GI50 U93): 30 nM; GI50 [11]: 80 nM; GI50 ([12]; 72 hours incubation, read-out: GI50 BG): 50 nM; GI50 [13]: 43 nM; GI50 [14]: 37 nM; GI50 ([15]; 72 hours incubation, read-out: GI50 Hela): 50 nM
C/C=C1\NC(=O)c2nc(ccc2SC)CNC(=O)C[C@@H](/C=C/CCSC(=O)CCCCCCC)OC(=O)[C@H](C(C)C)NC1=O [Compound 147]	28	83	78		45	23			57				28	37		50	40	50	30	80	GI50 [12, 29]: 50 nM; GI50 [15, 30]: 50 nM
C/C=C1\NC(=O)c2cc(F)cc(n2)CNC(=O)C[C@@H](/C=C/CCSC=O)OC(=O)[C@H](C(C)C)NC1=O [Compound 52]	91	53	31	90	51	88	20	30	31	60	90	50	91	27	80						
C/C=C1\NC(=O)c2cccc(n2)CNC(=O)C[C@@H](/C=C/CCSC(=O)CCCCCCC)OC(=O)[C@H](C(C)C)NC1=O [Compound 1]	179	18	95	20	53	37			33		10	60	29	78	20						GI50 ([4]; 72 hours, present invention, read-out: GI50 PANC-1, a): 320 nM; GI50 ([7]; Homo sapiens, DU-145, 72 h, 72 hours, present invention, read-out: GI50 Du145, a): 4 nM; GI50 ([8]; Homo sapiens, LNCaP, 72 h, 72 hours, present invention, read-out: GI50 lncap, a): 9 nM; GI50 ([10]; Homo sapiens, U-937, 72 h, 72 hours, present invention, read-out: GI50 U937, a): 5 nM; GI50 ([12]; Homo sapiens, BGC-823, 72 h, 72 hours, present invention, read-out: GI50 BGC823, a): 60 nM; GI50 ([15]; Homo sapiens, HeLa, 72 h, 72 hours, present invention, read-out: GI50 Hela, a): 20 nM
C/C=C1\NC(=O)c2cc(F)cc(n2)CNC(=O)C[C@@H](/C=C/CCSC(C)=O)OC(=O)[C@H](CCCCNC(=O)OCC2c3ccccc3-c3ccccc32)NC1=O [Compound 76]	72	32	26	70	51	94	10	20	26	30	70	30	72	17	90						
C/C=C1\NC(=O)c2nc(ccc2SC)CNC(=O)C[C@@H](/C=C/CCS)OC(=O)[C@H](C)NC1=O [Compound 232]	38	45	23		63	8			21				35	42		10	50	30	90	20	GI50 [12, 29]: 50 nM; GI50 [15, 30]: 30 nM

From patent publication US10065990B2, “Cyclic peptide compound, and preparation method, pharmaceutical composition and use thereof” (HANGZHOU GUANYU BIO-MEDICAL CO., LTD, priority 2013, dated 2018)
